Source: patent publication US8835615B2, “2′-fluorine-4′-substituted-nucleoside analogues, preparation methods and uses thereof” (priority 2007, dated 2014)
pIC50: −log10 of the molar value. Converted amounts (≈) assume the structure as drawn. Like-named read-outs stand apart in the source and are kept apart here.

Experiments:
HIV-1 IIIB = assay: Anti-HIV-1 activity in MT-4 cell culture (P24 antigen); type: cell-based
[1] = Cytotoxicity in MT-4 cells, MTT method; settings: human
VSVG/HIV-luc = assay: Pharmacological model of wild type HIV-1 replication (VSVG/HIV-luc, Cell 293); type: cell-based
[2] = Solubility of the drugs to be tested; type: physicochemical
Protocol: During the test, the solution was dissolved by DMSO to suitable concentration, diluted by culture medium, and immediately added into cell culture.

HBV DNA = HBV DNA in Hep G2.2.15 cell supernatant, fluorescent quantitative PCR; type: cell-based, hepatitis B virus; settings: for HBV DNA copy number / Inhibition ratio (%): cell supernatant
Hep G2.2.15 = assay: Cytotoxicity on Hep G2.2.15 (MTT); type: cell-based, human; settings: for Cell Survival Rate: MTT
HCV = assay: Anti-HCV activity, HCV-RNA by automatic PCR ELISA; type: cell-based
Protocol: The HCV replication cells (Avva.5) were cultivated in the Dulbecco's improved Eagle medium containing 10% fetal calf serum and 1 mg/ml G418. 293-Sip-L cells were cultivated in the Dulbecco's improved Eagle medium containing 10% fetal calf serum, 250 μg/ml G418 and 150 μg/ml hygromycin B.
Using Petri culture dish in a diameter of 60 mm, the cells were cultivated in a positive culture medium containing 100 μl of HCV for 12 hours. Then, the cells were cultivated in the fresh medium containing on HCV and the medium was replaced once everyday. When detecting HCV-RNA 7 days after the cells have been infected with HCV, it is necessary to clean the cells using the Dulbecco's improved Eagle medium in trypsinization and centrifugation methods. The upper layer part cleaned for the second time (used for comparison) and the washed cells were collected for RNA extraction and RT-PCR detection. β-actin mRNA was simultaneously determined for the purpose of comparison.
The quantitative determination on HCV-RNA is performed in automatic PCR Enzyme-linked immunosorbent assay (ELISA). (Edition 2.0, Roche Diagnostics, Branchburg, N.J.)
HCV-NA level was determined in automatic PCR ELISA.

[3] = Human immunodeficiency virus 1, MT4, 96 h, HIV-1 IIIB in MT-4 cell culture, 4 days, read-out: IC50
[4] = MT-4 cells infected with HIV-1 IIIB
[5] = Human immunodeficiency virus 1, VSVG/HIV-luc, Cell 293, read-out: Remarks IC50
[6] = Human immunodeficiency virus 1, IIIB, MT4, 96 h
[7] = 0.06 μg/ml in the cell supernatant
[8] = 0.6 μg/ml in the cell supernatant
[9] = 6 μg/ml in the cell supernatant

SMILES	IC50 (HIV-1 IIIB; [3])	CC50 at 4 days [1, 4]	CC50 at 4 days ([1]; uninfected MT-4 cells)	Solubility in DMSO [2]	Solubility in water [2]	also measured
Cc1cn([C@H]2C[C@H](N=[N+]=[N-])[C@@H](CO)O2)c(=O)[nH]c1=O [AZT, Zidovudine, reference compound]	0.182 ng/mL (≈ 0.000681 µM)	> 0.625 µg/mL	> 0.625 µg/mL	–	–	–
C#CC1(CO)OC(n2ccc(N)nc2=O)C(F)C1O (stereo not shown) [Compound 1]	101 ng/mL (≈ 0.375 µM)	43.6 µg/mL (≈ 162 µM)	40.9 µg/mL (≈ 152 µM)	DMSO-soluble	water-insoluble	pIC50 (VSVG/HIV-luc; [5]): 6.30
CC1(CO)OC(n2ccc(O)nc2=O)C(F)C1O (stereo not shown) [Compound 9]	–	31.2 µg/mL (≈ 120 µM)	30.1 µg/mL (≈ 115 µM)	DMSO-soluble	water-insoluble	IC50 (HIV-1 IIIB; [6]): 162 ng/mL (≈ 0.623 µM)
[N-]=[N+]=NC1(CO)OC(n2ccc(N)nc2=O)C(F)C1O (stereo not shown) [Compound 15]	–	> 100 µg/mL	> 100 µg/mL	DMSO-soluble	water-insoluble	IC50 (HIV-1 IIIB; [6]): 0.01 ng/mL (≈ 3.49e-05 µM); pIC50 (VSVG/HIV-luc; Human immunodeficiency virus 1, read-out: Remarks IC50): 8.82; HBV DNA copy number (HBV DNA; 0.016 μg/L): 18.9 *10^5; Inhibition ratio (%) (HBV DNA; 0.016 μg/L): 41.0%; HBV DNA copy number (HBV DNA; 0.08 μg/L): 13.5 *10^5; Inhibition ratio (%) (HBV DNA; 0.08 μg/L): 57.8%; HBV DNA copy number (HBV DNA; 0.4 μg/L): 10.3 *10^5; Inhibition ratio (%) (HBV DNA; 0.4 μg/L): 67.8%; HBV DNA copy number (HBV DNA; 2 μg/L): 5.21 *10^5; Inhibition ratio (%) (HBV DNA; 2 μg/L): 83.7%; EC50 (HBV DNA; Hepatitis B virus, HepG2.2.15, HBV DNA in Hep G2.2.15 supernatant): 0.00019 µg/mL (≈ 0.000664 µM); Effect on HBV DNA copy number (in words) (HBV DNA; after administration, in vitro): significantly reduce; Cell Survival Rate (Hep G2.2.15; 8 μg/ml): 98.7%; Cell Survival Rate (Hep G2.2.15; 40 μg/ml): 96.7%; Cell Survival Rate (Hep G2.2.15; 200 μg/ml): 85.5%; Cell Survival Rate (Hep G2.2.15; 1000 μg/ml): 82.6%; Toxicity (in words) (Hep G2.2.15; in vitro tests): less toxicity
[N-]=[N+]=NC1(CO)OC(n2ccc(O)nc2=O)C(F)C1O (stereo not shown) [Compound 17]	–	–	–	–	–	HBV DNA copy number (HBV DNA; 100 μg/L): 19.2 *10^5; Inhibition ratio (%) (HBV DNA; 100 μg/L): 40.6%; HBV DNA copy number (HBV DNA; 500 μg/L): 14.3 *10^5; Inhibition ratio (%) (HBV DNA; 500 μg/L): 52.2%; HBV DNA copy number (HBV DNA; 1000 μg/L): 10.2 *10^5; Inhibition ratio (%) (HBV DNA; 1000 μg/L): 67.9%; Inhibition effect Test 1 (HCV-RNA level) (HCV; [7]): 4.9 × 10^2; Inhibition effect Test 2 (HCV-RNA level) (HCV; [7]): 4.1 × 10^2; Inhibition effect Test 1 (HCV-RNA level) (HCV; [8]): 0.92 × 10^2; Inhibition effect Test 2 (HCV-RNA level) (HCV; [8]): 0.78 × 10^2; Inhibition effect Test 1 (HCV-RNA level) (HCV; [9]): 1.1 × 10^2; Inhibition effect Test 2 (HCV-RNA level) (HCV; [9]): 0.81 × 10^2; Inhibition effect on HCV (in words) (HCV; 6 μg/ml, 0.6 μg/ml or 0.06 μg/ml): relatively strong inhibition effect
C#CC1(CO)OC(n2cnc3c(F)ncnc32)C(F)C1O (stereo not shown) [Compound 19]	–	43.8 µg/mL (≈ 148 µM)	39.8 µg/mL (≈ 134 µM)	DMSO-soluble	water-insoluble	IC50 (HIV-1 IIIB; [6]): 90 ng/mL (≈ 0.304 µM); pIC50 (VSVG/HIV-luc; [5]): 6.00
CC1(CO)OC(n2cnc3c(O)ncnc32)C(F)C1O (stereo not shown) [Compound 36]	127 ng/mL (≈ 0.447 µM)	35.1 µg/mL (≈ 124 µM)	37.5 µg/mL (≈ 132 µM)	DMSO-soluble	water-insoluble	–
N#CC1(CO)OC(n2cnc3c(N)ncnc32)C(F)C1O (stereo not shown) [Compound 39]	1490 ng/mL (≈ 5.06 µM)	38.3 µg/mL (≈ 130 µM)	36.8 µg/mL (≈ 125 µM)	DMSO-soluble	water-insoluble	–
N#CC1(CO)OC(n2cc(F)c3c(O)ncnc32)C(F)C1O (stereo not shown) [Compound 46]	131 ng/mL (≈ 0.42 µM)	48.5 µg/mL (≈ 155 µM)	55.4 µg/mL (≈ 177 µM)	DMSO-soluble	water-insoluble	–
[N-]=[N+]=NC1(CO)OC(n2cc(F)c3c(N)ncnc32)C(F)C1O (stereo not shown) [Compound 50]	2300 ng/mL (≈ 7.03 µM)	28.3 µg/mL (≈ 86.5 µM)	27.9 µg/mL (≈ 85.3 µM)	DMSO-soluble	water-insoluble	–
C#CC1(CO)OC(n2cc(F)c3c(N)ncnc32)C(F)C1O (stereo not shown) [Compound 52]	133 ng/mL (≈ 0.429 µM)	41.3 µg/mL (≈ 133 µM)	38.6 µg/mL (≈ 124 µM)	DMSO-soluble	water-insoluble	–
Cc1ccnc2c1NC(=O)c1cccnc1N2C1CC1 [NVP, Nevirapine, reference compound]	3.64 ng/mL (≈ 0.0137 µM)	> 12.5 µg/mL	> 12.5 µg/mL	–	–	–
